ChEMBL document CHEMBL4346711, “Discovery of coumarin Mannich base derivatives as multifunctional agents against monoamine oxidase B and neuroinflammation for the treatment of Parkinson's disease” (Eur J Med Chem, 2019)
Activity calls are given as the source filed them. The calls are words filed in the database; no cut-off is given here.

Key:
[1] = molecular target: T1, Amine oxidase [flavin-containing] B (Homo sapiens, UniProt P27338); experiment: Inhibition of recombinant human MAO-B expressed in baculovirus infected BTI insect cells using p-tyramine as substrate preincubated for 60 mins followed by substrate addition and measured after 30 mins by horse-radish peroxidase-coupled amplex red reagent-based fluorescence spectrophotometric method
T1 sequence (P27338 whole entry): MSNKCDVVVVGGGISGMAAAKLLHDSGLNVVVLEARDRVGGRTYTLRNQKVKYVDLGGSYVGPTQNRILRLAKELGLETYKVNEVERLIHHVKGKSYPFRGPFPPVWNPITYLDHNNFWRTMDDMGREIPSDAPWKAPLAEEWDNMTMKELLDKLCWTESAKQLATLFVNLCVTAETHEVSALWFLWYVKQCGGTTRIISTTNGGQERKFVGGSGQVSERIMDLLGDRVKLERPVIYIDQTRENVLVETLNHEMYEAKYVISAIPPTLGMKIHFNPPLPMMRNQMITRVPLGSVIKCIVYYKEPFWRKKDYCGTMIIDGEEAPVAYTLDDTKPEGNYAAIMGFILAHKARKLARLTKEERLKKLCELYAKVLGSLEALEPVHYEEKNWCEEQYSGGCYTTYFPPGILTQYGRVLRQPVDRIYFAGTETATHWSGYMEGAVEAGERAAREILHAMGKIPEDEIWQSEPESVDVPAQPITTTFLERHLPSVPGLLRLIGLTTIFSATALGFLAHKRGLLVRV

SH-SY5Y [2] = experiment: Neuroprotection against H2O2-induced cell death in human SH-SY5Y cells assessed as increase in cell viability preincubated for 1 hr followed by H2O2 addition and measured after 24 hrs by MTT assay; format: functional, cell-based
[3] = Anti-neuroinflammatory activity in […] cells assessed as inhibition of LPS-induced NO production preincubated for 1 hr followed by LPS stimulation measured after 24 hrs by Griess reagent based assay; format: functional, cell-based; conditions: BV-2
Homo sapiens = species: Homo sapiens; experiment: Selectivity index, ratio of IC50 for recombinant human MAO-A expressed in baculovirus infected BTI insect cells to IC50 for recombinant human MAO-B expressed in baculovirus infected BTI insect cells
SH-SY5Y [4] = experiment: Neuroprotection against L-glutamic acid-induced cell death in human SH-SY5Y cells assessed as increase in cell viability preincubated for 1 hr followed by L-glutamic acid addition and measured after 24 hrs by MTT assay; format: functional, cell-based
[5] = molecular target: T2, Amine oxidase [flavin-containing] A (Homo sapiens, UniProt P21397); experiment: Inhibition of recombinant human MAO-A expressed in baculovirus infected BTI insect cells using p-tyramine as substrate preincubated for 60 mins followed by substrate addition and measured after 30 mins by horse-radish peroxidase-coupled amplex red reagent-based fluorescence spectrophotometric method
T2 sequence (P21397 whole entry): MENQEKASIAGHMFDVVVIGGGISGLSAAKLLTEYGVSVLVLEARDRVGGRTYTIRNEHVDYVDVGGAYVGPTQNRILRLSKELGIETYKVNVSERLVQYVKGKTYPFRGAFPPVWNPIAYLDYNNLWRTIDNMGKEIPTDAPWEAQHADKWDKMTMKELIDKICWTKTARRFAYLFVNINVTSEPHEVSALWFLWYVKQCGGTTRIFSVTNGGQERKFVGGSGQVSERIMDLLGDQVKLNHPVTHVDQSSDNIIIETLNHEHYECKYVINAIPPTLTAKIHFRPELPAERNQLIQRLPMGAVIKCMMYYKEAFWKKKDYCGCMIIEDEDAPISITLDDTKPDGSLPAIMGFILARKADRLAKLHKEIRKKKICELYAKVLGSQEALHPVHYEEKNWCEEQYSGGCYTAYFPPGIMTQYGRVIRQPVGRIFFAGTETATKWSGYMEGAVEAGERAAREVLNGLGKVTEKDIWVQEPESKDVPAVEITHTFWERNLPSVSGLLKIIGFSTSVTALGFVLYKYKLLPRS

Mus musculus [6] = experiment: (§1) Anti-parkinson's activity in MPTP-induced C57BL/6 mouse model of Parkinson's disease assessed as restoration of motor ability by measuring increase in latency to fall at 10 mg/kg, po pretreated for 30 mins followed by MPTP challenge for 7 days and subsequent compound redosing for 5 days measured post-last dose by rotarod test; format: functional, organism-based
Mus musculus [7] = experiment: (§2) Anti-neuroinflammatory activity in MPTP-induced C57BL/6 mouse of Parkinson's disease assessed as increase in tyrosine hydroxylase positive cells in substantia nigra at 10 mg/kg, po pretreated for 30 mins followed by MPTP challenge for 7 days and subsequent compound redosing for 5 days measured post-last dose by DAB staining based immunohistochemistry method; format: functional, organism-based
Mus musculus [8] = experiment: as §1, with “activity in po dosed MPTP-induced C57BL/6” for “activity in MPTP-induced C57BL/6”, “to fall pretreated for” for “to fall at 10 mg/kg, po pretreated for”; format: functional, organism-based
Mus musculus [9] = experiment: Anti-neuroinflammatory activity in C57BL/6 mouse assessed as reduction in MPTP-induced iNOS expression in mid brain at 50 mg/kg, po pretreated for 30 mins followed by MPTP challenge for 7 days and subsequent compound redosing for 5 days measured post-last dose by Western blotting analysis; format: functional, organism-based
Mus musculus [10] = experiment: (§3) Ex vivo inhibition of MAO-A in mid brain homogenates of MPTP-induced C57BL/6 mouse model of Parkinson's disease at 50 mg/kg, ig using p-tyramine as substrate preincubated for 60 mins followed by substrate addition and measured after 30 mins by horse-radish peroxidase-coupled/amplex red reagent-based fluorescence spectrophotometric method; format: functional, organism-based
Mus musculus [11] = experiment: as §3, with “Inhibition” for “inhibition”, “MAO-B” for “MAO-A”; format: functional, organism-based
Mus musculus [12] = experiment: Anti-neuroinflammatory activity in C57BL/6 mouse assessed as reduction in MPTP-induced COX2 expression in mid brain at 50 mg/kg, po pretreated for 30 mins followed by MPTP challenge for 7 days and subsequent compound redosing for 5 days measured post-last dose by Western blotting analysis; format: functional, organism-based
Mus musculus [13] = experiment: as §1, with “50” for “10”; format: functional, organism-based
Mus musculus [14] = experiment: as §2, with “activity in po dosed MPTP-induced C57BL/6” for “activity in MPTP-induced C57BL/6”, “substantia nigra pretreated for” for “substantia nigra at 10 mg/kg, po pretreated for”; format: functional, organism-based
Mus musculus [15] = experiment: Anti-neuroinflammatory activity in po dosed MPTP-induced C57BL/6 mouse model of Parkinson's disease assessed as increase in tyrosine hydroxylase expression in mid brain pretreated for 30 mins followed by MPTP challenge for 7 days and subsequent compound redosing for 5 days measured post-last dose by DAB staining based immunohistochemistry method; format: functional, organism-based

Structure (SMILES)	IC50 [1] [µM]	EC50 (SH-SY5Y [2]) [µM]	IC50 [3] [nM]	Ratio IC50 (Homo sapiens)	EC50 (SH-SY5Y [4]) [µM]	IC50 [5] [µM]	other results
Cc1cc(O)cc2oc(=O)c(C(=O)CCN3CCOCC3)cc12	36	> 100	280	2.74	> 100	98.5	–
O=C(CCN1CCCCC1)c1cc2ccc(O)cc2oc1=O	> 200	> 100	2130	–	45.4	> 200	–
Cc1cc(O)cc2oc(=O)c(C(=O)CCN3CCCC3)cc12	43.7	–	> 100000	3.97	> 100	173	–
COc1ccc2cc(C(=O)CCN3CCCC3)c(=O)oc2c1	18.1	> 100	> 100000	2.93	–	53.1	–
COc1ccc2cc(C(=O)CCN(C)C)c(=O)oc2c1	21.1	> 100	> 100000	0.36	–	7.63	–
C#CCN(C)[C@H](C)Cc1ccccc1	–	–	–	–	–	–	Activity (Mus musculus [6]): Active; Activity (Mus musculus [7]): Active
COc1ccc2cc(C(=O)CCN3CCOCC3)c(=O)oc2c1	4.62	–	8610	0.53	> 100	2.46	–
CN(C)CCC(=O)c1cc2cc(Br)c(O)c(Br)c2oc1=O	> 200	> 100	> 100000	–	–	> 200	–
Cc1cc(O)cc2oc(=O)c(C(=O)CCN(C)C)cc12	3.66	19.7	220	> 100	25.7	> 200	Activity (Mus musculus [8]): Dose-dependent effect; Activity (Mus musculus [9]): Active; inhibition (Mus musculus [10]): inactive; inhibition (Mus musculus [11]): Active; Activity (Mus musculus [12]): Active; Activity (Mus musculus [13]): Active; Activity (Mus musculus [14]): Active; Activity (Mus musculus [15]): Active
O=C(CCN1CCN(Cc2ccccc2)CC1)c1cc2ccc(O)cc2oc1=O	41.1	1.82	3640	2.63	> 100	108	–
COc1ccc2cc(C(=O)CCN3CCCCC3)c(=O)oc2c1	20.1	> 100	20	0.61	–	12.2	–
CCN(CC)CCC(=O)c1cc2ccc(O)cc2oc1=O	94	–	2670	0.96	13	89.9	–
O=C(CCN1CCCC1)c1cc2ccc(O)cc2oc1=O	> 200	–	610	–	> 100	> 200	–
Cc1cc(O)cc2oc(=O)c(C(=O)CCN3CCCCC3)cc12	119	83.7	110	1.14	> 100	136	–
O=C(CCN1CCCC1)c1cc2cc(Br)c(O)c(Br)c2oc1=O	> 200	75.1	> 100000	–	–	155	–
O=C(CCN1CCOCC1)c1cc2ccc(O)cc2oc1=O	151	> 100	10	0.73	22.9	111	–
CN(C)CCC(=O)c1cc2ccc(O)cc2oc1=O	71.4	–	560	1.53	> 100	110	–
COc1cc(/C=C/C(=O)CC(=O)/C=C/c2ccc(O)c(OC)c2)ccc1O [CURCUMIN]	–	–	1580	–	–	–	–
O=C(CCN1CCOCC1)c1cc2cc(Br)c(O)c(Br)c2oc1=O	14.1	> 100	24600	2.42	–	34.1	–
